system: HEK293 cells; assay: Preliminary screening as DNA vectors, GFP transfection of HEK293 cells; format: cell-based; conditions: amino lipid/DOPE liposome with 75 ng plasmid DNA (psin-EGFP-IRES-Puro); number of GFP-expressing cells divided by total nuclei (Hoechst)
How it was run: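 HEK293 cells in DMEM/10% FBS transfected with 75 ng EGFP plasmid per well complexed with amino lipid/DOPE liposomes in pH 5.6 sodium acetate. Hoechst nuclear stain added 20-24 h post-transfection, then cells cultured another 20-24 h. Confocal imaging gives GFP-positive cells as % of total nuclei.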

Compared with CCCCCCCCCCCCCCCSc1nc(NCCCCCCCCC)nc(NCCN(C)C)n1 [S15N9 D1], CCCCCCCCCCCCCCSc1nc(NCCCCCCCCC)nc(NCCN(C)C)n1 [S14N9 D1] is lower in “Absolute DNA transfection efficiency in HEK293 cells” value (from here on “Absolute DNA transfection efficiency”): 21.3% for the first, 20.8% for the second.

Compared with CCCCCCCCCCCCCCCCCCNc1nc(NCCN2CCCCC2)nc(SCCCCCCC)n1 [S7N18 D4], CCCCCCCCCCCCCNc1nc(NCCN2CCCCC2)nc(SCCCCCCCCCCC)n1 [S11N13 D4] is higher in “Absolute DNA transfection efficiency” value: 3.2% for the first, 3.5% for the second.

Compared with CCCCCCCCCNc1nc(NCCCN2CCN(C)CC2)nc(SCCCCCCCCC)n1 [S9N9 D9], CCCCCCCCCCCSc1nc(NCCCCCCC)nc(NCCCN2CCN(C)CC2)n1 [S11N7 D9] is lower in “Absolute DNA transfection efficiency” value: 50.7% for the first, 16.1% for the second.

First: CCCCCCCCCCCCCCSc1nc(NCCCCCCCCCCC)nc(NCCN2CCN(C)CC2)n1 [S14N11 D5]
Second: CCCCCCCCCCCCCCSc1nc(NCCCCCCCCCCCC)nc(NCCN2CCN(C)CC2)n1 [S14N12 D5]
The “Absolute DNA transfection efficiency” value of the first is higher: 13.3% for the first, 9.8% for the second.

CCCCCCCCCCCCCCCCNc1nc(NCCCN2CCOCC2)nc(SCCCCCCCCCCCCCCCC)n1 [S16N16 D8] and CCCCCCCCCCCCCCCCCCNc1nc(NCCCN2CCOCC2)nc(SCCCCCCCCCCCCCCCC)n1 [S16N18 D8] are the same in “Absolute DNA transfection efficiency” value: 0.0% for the first, 0.0% for the second.

Going from CCCCCCCCCCCNc1nc(NCCN2CCN(C)CC2)nc(SCCCCCCCCCC)n1 [S10N11 D5] to CCCCCCCCCCCCNc1nc(NCCN2CCN(C)CC2)nc(SCCCCCCCCC)n1 [S9N12 D5], the “Absolute DNA transfection efficiency” value rises from 7.2% to 48.2%.

Going from CCCCCCCCCCCCCCCSc1nc(NCCN2CCN(C)CC2)nc(SCCCCCCC)n1 [S7S15 D5] to CCCCCCCCCCCCCCCCNc1nc(NCCN2CCN(C)CC2)nc(SCCCCCC)n1 [S6N16 D5], the “Absolute DNA transfection efficiency” value rises from 14.9% to 19.6%.

Compared with CCCCCCCCCCCCCCCCCCNc1nc(NCCN2CCN(C)CC2)nc(SCCCCCCCCC)n1 [S9N18 D5], CCCCCCCCCCCCCCCCCCNc1nc(NCCN2CCN(C)CC2)nc(SCCCCCCCCCCC)n1 [S11N18 D5] is lower in “Absolute DNA transfection efficiency” value: 22.9% for the first, 9.3% for the second.

Compared with CCCCCCCCCCCCSc1nc(NCCN(CC)CC)nc(SCCCCCC)n1 [S6S12 D7], CCCCCCCCCCCCCCCSc1nc(NCCN(CC)CC)nc(SCCCCCC)n1 [S6S15 D7] is lower in “Absolute DNA transfection efficiency” value: 6.6% for the first, 3.3% for the second.

First: CCCCCCCCCCCCCCCCSc1nc(NCCCCCCC)nc(NCCN(CC)CC)n1 [S16N7 D7]
Second: CCCCCCCCCCCCCCCCNc1nc(NCCN(CC)CC)nc(SCCCCCCCC)n1 [S8N16 D7]
The “Absolute DNA transfection efficiency” value of the first is higher: 7.3% for the first, 5.2% for the second.

First: CCCCCCCCCCCCSc1nc(NCCN2CCCC2)nc(SCCCCCCC)n1 [S7S12 D3]
Second: CCCCCCCCCCCCCCCCCCSc1nc(NCCN2CCCC2)nc(SCCCCCCC)n1 [S7S18 D3]
The “Absolute DNA transfection efficiency” value of the first is lower: 9.9% for the first, 11.2% for the second.

Compared with CCCCCCCCCCCCCNc1nc(NCCCN(C)C)nc(SCCCCCC)n1 [S6N13 D6], CCCCCCCCCNc1nc(NCCCN(C)C)nc(SCCCCCCC)n1 [S7N9 D6] is higher in “Absolute DNA transfection efficiency” value: 12.9% for the first, 25.9% for the second.

First: CCCCCCCCCCCCCCCCNc1nc(NCC2CCN(C)CC2)nc(SCCCCCCCCCCCC)n1 [S12N16 D10]
Second: CCCCCCCCCCCCCCCCNc1nc(NCC2CCN(C)CC2)nc(SCCCCCCCCCCC)n1 [S11N16 D10]
The “Absolute DNA transfection efficiency” value of the first is lower: 2.4% for the first, 3.9% for the second.

First: CCCCCCCCCCCCCCCCCCNc1nc(NCCCN(C)C)nc(SCCCCCCCC)n1 [S8N18 D6]
Second: CCCCCCCCCCCCCCCCNc1nc(NCCN(C)C)nc(SCCCCCCCCCC)n1 [S10N16 D1]
The “Absolute DNA transfection efficiency” value of the first is higher: 20.6% for the first, 7.8% for the second.

Going from CCCCCCCCCCCCCCCCNc1nc(NCCCN2CCOCC2)nc(SCCCCCCC)n1 [S7N16 D8] to CCCCCCCCCCCCNc1nc(NCCCN2CCOCC2)nc(SCCCCCCCCCCC)n1 [S11N12 D8], the “Absolute DNA transfection efficiency” value falls from 8.1% to 1.5%.

First: CCCCCCCCCCCCCCCSc1nc(NCCCCCCCC)nc(NCCCN2CCN(C)CC2)n1 [S15N8 D9]
Second: CCCCCCCCCCCCCCCNc1nc(NCCCN2CCN(C)CC2)nc(SCCCCCC)n1 [S6N15 D9]
The “Absolute DNA transfection efficiency” value of the first is lower: 11.6% for the first, 28.4% for the second.

Compared with CCCCCCCCCCCCCCCCSc1nc(NCCCCCCCCCCCCC)nc(NCCCN2CCOCC2)n1 [S16N13 D8], CCCCCCCCCCCCCCCCNc1nc(NCCCN2CCOCC2)nc(SCCCCCCCCCCCCCC)n1 [S14N16 D8] is lower in “Absolute DNA transfection efficiency” value: 0.2% for the first, 0.1% for the second.

First: CCCCCCCCCCCCCCCCSc1nc(NCCCCCCCCCCCCC)nc(NCCN2CCCCC2)n1 [S16N13 D4]
Second: CCCCCCCCCCCCCCCCCCNc1nc(NCCN2CCCC2)nc(SCCCCCCCCCCCCCC)n1 [S14N18 D3]
The “Absolute DNA transfection efficiency” value of the first is lower: 0.0% for the first, 1.7% for the second.

First: CCCCCCCCCCCCN(CCCCCCCCCCCC)c1nc(NCCCN2CCN(C)CC2)nc(SCCCCCCC)n1 [S7^2N12 D9]
Second: CCCCCCCCCCCCN(CCCCCCCCCCCC)c1nc(NCCCN(C)C)nc(SCCCCCC)n1 [S6^2N12 D6]
The “Absolute DNA transfection efficiency” value of the first is higher: 0.3% for the first, 0.2% for the second.

Compared with CCCCCCCCCCCSc1nc(NCCCCCCCCC)nc(NCCN2CCCC2)n1 [S11N9 D3], CCCCCCCCCCCCCNc1nc(NCCN2CCCCC2)nc(SCCCCCCCCCC)n1 [S10N13 D4] is lower in “Absolute DNA transfection efficiency” value: 23.1% for the first, 4.2% for the second.

Compared with CCCCCCCCCCCCCNc1nc(NCC2CCN(C)CC2)nc(SCCCCCCCCC)n1 [S9N13 D10], CCCCCCCCCCCCCCCSc1nc(NCCCCCCCC)nc(NCC2CCN(C)CC2)n1 [S15N8 D10] is lower in “Absolute DNA transfection efficiency” value: 29.4% for the first, 19.4% for the second.

Going from CCCCCCCCCCCCCCCCCCSc1nc(NCCCCCCCCCCCCCCCC)nc(NCCN(C)C)n1 [S18N16 D1] to CCCCCCCCCCCCCCCCCCNc1nc(NCCCN(C)C)nc(SCCCCCCCCCCCCCC)n1 [S14N18 D6], the “Absolute DNA transfection efficiency” value rises from 0.0% to 0.9%.

Going from CCCCCCCCCCCCCCCCNc1nc(NCCN2CCOCC2)nc(SCCCCCCC)n1 [S7N16 D2] to CCCCCCCCCCCCCCCSc1nc(NCCCCCC)nc(NCCCN2CCOCC2)n1 [S15N6 D8], the “Absolute DNA transfection efficiency” value rises from 12.9% to 19.8%.

First: CCCCCCCCCCCCCCCSc1nc(NCCCCCCCCC)nc(NCCN(CC)CC)n1 [S15N9 D7]
Second: CCCCCCCCCCCCCCSc1nc(NCCCCCCCC)nc(NCCN(CC)CC)n1 [S14N8 D7]
The “Absolute DNA transfection efficiency” value of the first is higher: 16.4% for the first, 1.6% for the second.

Compared with CCCCCCCCCCCCCNc1nc(NCCCN(C)C)nc(SCCCCCCCCCC)n1 [S10N13 D6], CCCCCCCCCCCCCCSc1nc(NCCCCCCCCCCCCC)nc(NCCN(CC)CC)n1 [S14N13 D7] is lower in “Absolute DNA transfection efficiency” value: 7.9% for the first, 2.8% for the second.

Compared with CCCCCCCCCCCCCCCCCCNc1nc(NCCCN2CCN(C)CC2)nc(SCCCCCCCCCCCCCCCC)n1 [S16N18 D9], CCCCCCCCCCCCCCCCCCSc1nc(NCCCCCCCCCCCC)nc(NCC2CCN(C)CC2)n1 [S18N12 D10] is higher in “Absolute DNA transfection efficiency” value: 0.0% for the first, 5.3% for the second.

First: CCCCCCCSc1nc(NCCCN2CCOCC2)nc(SCCCCCCC)n1 [S7S7 D8]
Second: CCCCCCCCSc1nc(NCCCCCC)nc(NCCN2CCOCC2)n1 [S8N6 D2]
The “Absolute DNA transfection efficiency” value of the first is higher: 0.6% for the first, 0.2% for the second.

First: CCCCCCCCCCCCCCCCCCSc1nc(NCCCCCCCCCCCC)nc(NCCN(CC)CC)n1 [S18N12 D7]
Second: CCCCCCCCCNc1nc(NCCN(CC)CC)nc(SCCCCCCCCC)n1 [S9N9 D7]
The “Absolute DNA transfection efficiency” value of the first is lower: 0.5% for the first, 49.8% for the second.

Going from CCCCCCCCCCCCCCCCCCSc1nc(NCC2CCN(C)CC2)nc(N(CCCCCCCCCCCC)CCCCCCCCCCCC)n1 [S18^2N12 D10] to CCCCCCCCCCCCCCSc1nc(NCCCCCC)nc(NCC2CCN(C)CC2)n1 [S14N6 D10], the “Absolute DNA transfection efficiency” value rises from 0.4% to 39.0%.

Going from CCCCCCCCCCCCCCSc1nc(NCCCCCCCCC)nc(NCCN2CCN(C)CC2)n1 [S14N9 D5] to CCCCCCCCCCCCSc1nc(NCCCCCCCCCCC)nc(NCCN2CCN(C)CC2)n1 [S12N11 D5], the “Absolute DNA transfection efficiency” value falls from 16.9% to 8.0%.

Compared with CCCCCCCCCCCCSc1nc(NCCCCCC)nc(NCCN2CCOCC2)n1 [S12N6 D2], CCCCCCCCCCSc1nc(NCCCCCC)nc(NCCN2CCOCC2)n1 [S10N6 D2] is higher in “Absolute DNA transfection efficiency” value: 0.1% for the first, 0.5% for the second.

Compared with CCCCCCCCCCSc1nc(NCCCCCCC)nc(NCCN2CCN(C)CC2)n1 [S10N7 D5], CCCCCCCCCCCCNc1nc(NCCN2CCN(C)CC2)nc(SCCCCCCC)n1 [S7N12 D5] is higher in “Absolute DNA transfection efficiency” value: 7.5% for the first, 35.1% for the second.

Compared with CCCCCCCCCCCSc1nc(NCCCCCC)nc(NCCCN2CCN(C)CC2)n1 [S11N6 D9], CCCCCCCCSc1nc(NCCCCCCC)nc(NCCCN2CCN(C)CC2)n1 [S8N7 D9] is lower in “Absolute DNA transfection efficiency” value: 13.5% for the first, 3.6% for the second.

Compared with CCCCCCCCCCSc1nc(NCCCCCCC)nc(NCCN(C)C)n1 [S10N7 D1], CCCCCCCCCCCCCCCCSc1nc(NCCN(C)C)nc(SCCCCCC)n1 [S6S16 D1] is higher in “Absolute DNA transfection efficiency” value: 8.2% for the first, 8.4% for the second.

Going from CCCCCCCCCCCCCCCCNc1nc(NCCN2CCCC2)nc(SCCCCCCCCCC)n1 [S10N16 D3] to CCCCCCCCCCCCNc1nc(NCCN2CCN(C)CC2)nc(SCCCCCCCCCC)n1 [S10N12 D5], the “Absolute DNA transfection efficiency” value falls from 8.8% to 2.6%.

With CCCCCCCCCCCCNc1nc(NCCN2CCN(C)CC2)nc(SCCCCCCCC)n1 [S8N12 D5] the “Absolute DNA transfection efficiency” value was 41.7%.

From patent US20230123334A1, “AMINO LIPID COMPOUND, PREPARATION METHOD THEREFOR, AND APPLICATION THEREOF” (SHENZHEN SHENXIN BIOTECHNOLOGY CO., LTD., priority 2020, published 2023)
